Reference: US10913750B2, “Tubulin-binding compounds, compositions and uses related thereto” (The Regents of the University of California, priority 2015, dated 2021)

Key:
HeLa cells [1] = experiment: CellTiter-Glo cell viability, HeLa cells; format: cell-based; settings: Homo sapiens; HeLa cells, 72 hours, CellTiter-Glo
Protocol: (§1) The cell viability IC50 of each compound was determined using Promega CellTiter-Glo Luminescent Cell Viability Assay kit by measuring the total ATP levels to quantify the number of metabolically active cells upon drug treatment as described in Crouch et al., J Immunol Methods 1993, 160, (1), 81-8. Briefly, the compounds were suspended in DMSO at 10 mM and diluted in 384 plates (20 μl/well in DMSO) in triplicate by a 14-point titration (12 nM to 100 μM). 50 μl of HeLa cells or patient derived glioblastoma cells (HK-309) (2000 cells/well) were then treated with the prepared dilutions of the drugs (0.5 μl) and incubated at 37° C. and 5% CO2. 72 hours later 50 μl of CellTiter-Glo reagent was added to each well followed by a 2 minutes shaking and a 10-minute incubation to lyse the cells. The relative luminescent intensity units (RLU) of each well was measured using a Tecan M1000 microplate reader (Tecan Group Ltd.) with its green filter and 1 second integration time.
(§2) Cells used in Example 2 and other examples disclosed herein were cultured as follows: Adherent HeLa cells and patient derived glioblastoma cells were grown with 5% CO2 at 37° C. in F12:DMEM 50:50 medium (Invitrogen) containing 10% FBS and 1% penicillin/streptomycin. To obtain HeLa cells synchronized in mitosis, cycling cells were treated with 2 mM thymidine (Sigma-Aldrich) for eighteen hours, washed three times with PBS, and released into fresh media until they entered mitosis eight hours post-release. Patient-derived glioblastoma cells (HK-309) were collected and grown with approval from the UCLA Institutional Review Board. HK-309 was derived from a recurrent glioblastoma taken from a person. The cells were initially propagated as cancer stem cell-containing spheres in serum-free medium containing basic fibroblast growth factor and epidermal growth factor (Preprotech) as described previously by Visnyei et al., Mol Cancer Ther 2011, 10, (10), 1818-28.
For mitotic arrest IC50s, cells were treated with a twenty-point-2-fold-titration (190 pM to 10 μM) of each compound tested for 20 hours. For cell viability IC50s, cells were treated with a fourteen-point-2-fold-titration (12.2 nM to 100 μM). Mitotic arrest IC50 was determined by measuring the percent G2/M arrest using the Vybrant DyeCycle Green (Invitrogen) assay described above. Cell viability IC50 was determined using the CellTiter-Glo Assay (Promega), which measures total ATP levels. Plates were read with a Tecan M1000 micro-plate reader at 540 nm. The CDD software was used for generating IC50 and IC90 values.

[2] = tested on: patient-derived glioblastoma cells (HK-309); experiment: CellTiter-Glo cell viability, patient-derived glioblastoma cells; format: cell-based; settings: HK-309, 72 hours
Protocol: as §1, §2

tubulin = biological target: T1, tubulin (Sus scrofa, UniProt P02554); experiment: In vitro tubulin polymerization assay (HTS-tubulin polymerization kit, Cytoskeleton); format: biochemical; settings: 3 μM compound, fluorescence, 70 minutes at 37° C.
T1 construct: purchased Cytoskeleton Inc. BK011P
Protocol: 1.5 ul of 10× strength compound, 20 μl of tubulin solution and Triton X-100 at a final concentration of 0.01% were added to each well in a 384 well plate. The reactions were assembled on ice to prevent tubulin pre-polymerization. For kinetic measurements, microtubule polymerization was monitored by reading the fluorescence at 420 nm (due to the incorporation of a fluorescent reporter into microtubules as polymerization occurs) every ten seconds using a Tecan M1000 microplate reader (FIG. 6B). […] Fluorescence increased as polymerization occurred, due to the incorporation of 4′,6-diamidino-2-phenylindole. Fluorescence was monitored every minute for 70 minutes at 37° C.
Tubulin polymerization reactions were carried out according to the manufacturer (Cytoskeleton, BK011P) in the presence of 3 μM colchicine, MI-181, taxol or DMSO. Polymerization was monitored with a Tecan M1000 micro-plate reader at 420 nm for 70 minutes at 37° C. The results are depicted in FIG. 11.

HeLa cells [3] = experiment: Microtubule stability by immunofluorescence microscopy; format: cell-based; settings: increasing concentrations, anti-α-tubulin staining
Protocol: Next, microtubule stability was analyzed in HeLa cells treated with increasing concentrations of each of these three compounds by fixing the cells with 4% paraformaldehyde, staining them with Hoechst 33342 (DNA dye) to visualize their DNA and anti-α-tubulin antibodies to visualize microtubule structures and then imaging them by immunofluorescence microscopy.

HeLa cells [4] = experiment: Cell cycle analysis / cell division; format: cell-based; settings: 20 hours
Protocol: For cell cycle analysis, HeLa cells were plated in 384 well plates (1500 cells/well) and treated with 10 μM drugs for 20 hours. Cells were then fixed and stained with 5 μM Vybrant DyeCycle Green (Invitrogen) for 1 hour at 37° C. and plates were scanned with an Acumen eX3 (TTP Labtech) fluorescence microplate cytometer using its 488 nm laser and a cell cycle histogram profile was generated for each drug treatment using the CDD (Collaborative Drug Discovery) software. […] Additionally, HeLa cells were treated with increasing concentrations of colchicine and compound 10 for 20 hours and the drug response dose curves were used to measure the mitotic arrest IC50 for each treatment.
Briefly, HeLa cells were treated with increasing concentrations of 10, 10a, and 10b for 20 hours and the drug response dose curves were used to measure the mitotic arrest IC50 for each treatment. Also, the percentage of cells undergoing normal cell division was quantified for DMSO, colchicine, 10b, or taxol-treated cells. Data represent the average±SD of 3 independent experiments, with 20 cells counted for each. Asterisks denotes p-value<0.0001.

β-tubulin = experiment: Crystal structure of T2R-TTL tubulin complex soaked with ligand; format: binding, bovine; settings: T2R-TTL crystal soaked 24 hours with 1 mM compound
Protocol: The crystal structure of tubulin bound to two ligands described here was obtained using an established system for tubulin crystal growth. […] Methods in Cell Biology 2010, 95:373-390.) Briefly, bovine αβ-tubulin, human RB3 or rat STMN4 stathmin-like domain, and chicken tubulin tyrosine ligase (TTL) reconstitute to form a stathmin-bound αβ-tubulin (T2R) T2R-TTL complex, which readily crystallizes. […]
The final resolution cutoffs described here were determined optimally from a subset of diffraction images that took into consideration the signal-to-noise ratio for reflection intensities and the random half-data set correlation coefficient, CC1/2 (Karplus P. A., Diederichs K. Linking crystallographic model and data quality. Science 2012, (New York, N.Y.) 336:1030-1033.) […]

T1 sequence (P02554 whole entry): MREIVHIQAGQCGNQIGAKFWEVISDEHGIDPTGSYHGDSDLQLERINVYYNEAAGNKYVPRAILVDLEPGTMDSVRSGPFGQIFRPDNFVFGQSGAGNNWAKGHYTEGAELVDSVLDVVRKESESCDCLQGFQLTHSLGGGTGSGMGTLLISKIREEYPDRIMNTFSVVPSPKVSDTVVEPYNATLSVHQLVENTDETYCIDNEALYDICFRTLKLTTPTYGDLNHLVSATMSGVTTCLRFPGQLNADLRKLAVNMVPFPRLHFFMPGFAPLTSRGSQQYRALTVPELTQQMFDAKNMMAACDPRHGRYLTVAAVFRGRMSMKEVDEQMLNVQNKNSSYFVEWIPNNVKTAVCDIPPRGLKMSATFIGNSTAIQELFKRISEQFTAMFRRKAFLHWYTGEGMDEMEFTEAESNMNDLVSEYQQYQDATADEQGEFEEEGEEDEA
T1 sequence (P02550 whole entry partner): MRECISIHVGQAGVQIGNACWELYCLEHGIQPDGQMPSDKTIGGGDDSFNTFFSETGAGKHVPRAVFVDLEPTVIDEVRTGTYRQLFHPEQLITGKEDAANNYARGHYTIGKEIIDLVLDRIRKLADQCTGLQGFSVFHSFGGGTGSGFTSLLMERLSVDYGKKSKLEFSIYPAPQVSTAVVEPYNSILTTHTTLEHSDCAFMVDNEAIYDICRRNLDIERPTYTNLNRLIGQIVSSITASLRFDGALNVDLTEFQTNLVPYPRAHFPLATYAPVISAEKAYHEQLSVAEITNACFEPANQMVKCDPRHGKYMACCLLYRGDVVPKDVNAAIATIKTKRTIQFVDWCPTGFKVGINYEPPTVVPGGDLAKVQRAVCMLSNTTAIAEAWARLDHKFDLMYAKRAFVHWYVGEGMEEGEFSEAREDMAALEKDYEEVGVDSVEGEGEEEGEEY

O=c1[nH]c(/C=C/c2ccccc2)nc2sc3c(c12)CCCC3 [Compound 10, (E)-2-styryl-5,6,7,8-tetrahydrobenzo[4,5]thieno[2,3-d]pyrimidin-4(3H)-one]
IC50 (HeLa cells [1]): 552 nM
IC50 [2]: 352 nM
inhibition of microtubule (tubulin) polymerization in vitro (tubulin): potent inhibitors of microtubule polymerization similar to colchicine
microtubule stability in treated cells (HeLa cells [3]): destabilized in a drug dose-dependent manner
effect on cell division and cell death (HeLa cells [4]): inhibit cell division and trigger apoptotic cell death

CCOc1ccc(C2=Nn3c(nnc3-c3ccccc3OC)SC2)cc1 [Compound C2, reference compound]
binding to tubulin in crystal structure (β-tubulin): bound to β-tubulin
